# Laboratory results reported in publication PMC8443589, “Modelling human liver fibrosis in the context of non-alcoholic steatohepatitis using a microphysiological system” (Communications Biology, 2021).
# Values joined by “and” are separate entries in the source; they are usually repeats but may differ in a detail not shown here. Equal values may be shown once.
# Legend:
# [1] = system: liver MPS NASH model + TGFβ (PHH, KC and HSC co-cultures, high fat); experiment: Secreted cytokine profile of enhanced liver MPS NASH model with TGFβ dosed with OCA or ELF (Fig 6a); type: cell-based, human; conditions: for IL-1RA production, fold change compared to control / IL-4 production, fold change compared to control / IL-6 production, fold change compared to control / IL-8 production, fold change compared to control / IP-10 production, fold change compared to control / MCP-1 production, fold change compared to control / MIP-1a production, fold change compared to control / MIP-1b production, fold change compared to control / VEGF production, fold change compared to control: vs NASH + TGFβ control
# Text: (§1) The systems biology approach identified TGFβ to be a key driver in creating a more advanced NASH phenotype in the MPS model, with enhanced fibrotic markers and reduced liver function. […] Therefore, we explored how effective pharmacological intervention would be for NASH microtissues with high NPC numbers supplemented with TGFβ and exposed them to varying concentrations of OCA and ELF QD as previously described (Supp. Fig. 6a). […] OCA had the greatest effect on IL-1Rα whereas ELF had the greatest effect on MCP-1 reflecting the fact that while both candidate drugs have anti-inflammatory properties, but their mechanisms of action are different. […] Finally, we used our quantitative fibrosis imaging assay to assess the effect of each candidate drug on collagen-1 deposition and α-SMA expression (Fig. 6c). […] Both candidate drugs caused a significant reduction in collagen-1 deposition and α-SMA expression, with the highest concentrations of OCA and ELF causing an 80% reduction in α-SMA expression and a 75% reduction in collagen-1 deposition (Fig. 6c).
# (§2) Fig. 6 Using enhanced liver MPS NASH model with TGFβ, Obeticholic acid and Elafibranor modulate disease phenotype to a greater extent than in standard NASH model. PHH, KC and HSC co-cultures were cultured in the MPS platform under high-fat conditions and dosed with varying concentrations of Obeticholic acid (OCA) and Elafibranor (ELF) QD or vehicle control for 10 days, following an initial 4-day pre-culture phase. Throughout the compound dosing period TGFβ was also dosed onto all microtissues (NASH only vehicle control samples were also included in the study for comparison, which were not treated with TGFβ or dosed with any compound). a The secreted cytokine profile from treated liver microtissues was compared to determine the effects of each compound on the inflammatory profile of the liver with samples analysed at day 8 and 14 of the culture. Data were normalised by Z-transformation to allow comparison of all analytes (white = undetected). b The expression of fibrosis-associated biomarkers was analysed on day 14 media samples and compared to NASH + TGFβ control samples. c Liver microtissues were stained for collagen-type I, α-SMA, nuclei (DAPI), phalloidin (green) and imaged by confocal microscopy. Representative images are shown and scale bars 200 µm. Staining of microtissues was quantified by measuring total fluorescence intensity throughout individual microtissues, each data point represents an average of all microtissues per MPS culture (min 8, max 20). All datapoints shown with error bars highlighting means ± SD, all data from a minimum of three independent cultures: all comparisons were made to NASH + TGFβ control samples.
# Cytokine profiles in cell culture medium samples were also analysed by Luminex array for determination of 38 analytes in total, consisting of cytokines, chemokines, and growth factors using the MILLIPLEX MAP Human Cytokine/Chemokine Magnetic Bead Panel - Premixed 38 Plex (Merck Millipore, USA).
# (§3) Liver microtissues were cultured for 4 days in HEP-FAT medium, before dosing with obeticholic acid or elafibranor. Both compounds were dissolved in DMSO, diluted in cell culture medium (final DMSO concentration ≤1%) and added to microtissues during a full medium change every two days and in addition on the intervening days compounds were spiked into the media to increase drug concentration back to desired concentrations. Cultures were maintained in the presence of the compound, for a total of 10 days in the presence or absence of TGFβ.
# [2] = system: liver MPS NASH model + TGFβ (PHH, KC and HSC co-cultures, high fat); experiment: Fibrosis-associated soluble biomarkers (TIMP-1, pro-collagen 1) in liver MPS NASH model with TGFβ dosed with OCA or ELF (Fig 6b); type: cell-based, human; conditions: for Pro-collagen 1 / TIMP-1: NASH + TGF, individual replicates, listed as ELF
# Text: as §1, §2
# Soluble biomarkers in cell culture medium from the MPS were analysed by enzyme-linked immunosorbent assay (ELISA); IL-6 was measured by Human IL-6 DuoSet ELISA (R&D Systems); MCP-1 was measured by Human CCL2/MCP-1 DuoSet ELISA (R&D Systems); pro-collagen 1 was measured by Human Pro-Collagen I α1 DuoSet (R&D Systems); TIMP-1 was measured by Human TIMP-1 Quantikine ELISA Kit (R&D Systems); Fibronectin was measured by Human Fibronectin DuoSet ELISA (R&D Systems); YKL-40 was measured by Human Chitinase 3-like 1 Quantikine ELISA Kit (R&D Systems); Albumin secretion was measured by Human Albumin AssayMax™ ELISA kit (Assay Pro, St. Charles, MO). For all assays, the manufacturer’s protocol was followed.
# as §3
# human NASH patients = conditions: cited from earlier work
smiles,measurement,setting,value
CSc1ccc(C(=O)/C=C/c2cc(C)c(OC(C)(C)C(=O)O)c(C)c2)cc1 [Elafibranor],"IL-1RA production, fold change compared to control","[1]; 1.3 µM, Day 8",0.9952 fold change
same,"IL-4 production, fold change compared to control","[1]; 1.3 µM, Day 8",1.184 fold change
same,"IL-6 production, fold change compared to control","[1]; 1.3 µM, Day 8",1.1389 fold change
same,"IL-8 production, fold change compared to control","[1]; 1.3 µM, Day 8",1.023 fold change
same,"IP-10 production, fold change compared to control","[1]; 1.3 µM, Day 8",1.0718 fold change
same,"MCP-1 production, fold change compared to control","[1]; 1.3 µM, Day 8",1.264 fold change
same,"MIP-1a production, fold change compared to control","[1]; 1.3 µM, Day 8",0.709 fold change
same,"MIP-1b production, fold change compared to control","[1]; 1.3 µM, Day 8",0.6796 fold change
same,"VEGF production, fold change compared to control","[1]; 1.3 µM, Day 8",1.105 fold change
same,"IL-1RA production, fold change compared to control","[1]; 1.3 µM, Day 14",0.9067 fold change
same,"IL-4 production, fold change compared to control","[1]; 1.3 µM, Day 14",0.6872 fold change
same,"IL-6 production, fold change compared to control","[1]; 1.3 µM, Day 14",0.5754 fold change
same,"IL-8 production, fold change compared to control","[1]; 1.3 µM, Day 14",0.6606 fold change
same,"IP-10 production, fold change compared to control","[1]; 1.3 µM, Day 14",1.038 fold change
same,"MCP-1 production, fold change compared to control","[1]; 1.3 µM, Day 14",0.8586 fold change
same,"MIP-1a production, fold change compared to control","[1]; 1.3 µM, Day 14",0.6631 fold change
same,"VEGF production, fold change compared to control","[1]; 1.3 µM, Day 14",1.4873 fold change
same,"IL-1RA production, fold change compared to control","[1]; 13 µM, Day 8",1.265 fold change
same,"IL-4 production, fold change compared to control","[1]; 13 µM, Day 8",0.7184 fold change
same,"IL-6 production, fold change compared to control","[1]; 13 µM, Day 8",1.361 fold change
same,"IL-8 production, fold change compared to control","[1]; 13 µM, Day 8",0.9806 fold change
same,"IP-10 production, fold change compared to control","[1]; 13 µM, Day 8",0.6298 fold change
same,"MCP-1 production, fold change compared to control","[1]; 13 µM, Day 8",0.7964 fold change
same,"MIP-1a production, fold change compared to control","[1]; 13 µM, Day 8",0.7122 fold change
same,"MIP-1b production, fold change compared to control","[1]; 13 µM, Day 8",0.7615 fold change
same,"VEGF production, fold change compared to control","[1]; 13 µM, Day 8",1.5043 fold change
same,"IL-1RA production, fold change compared to control","[1]; 13 µM, Day 14",1.13 fold change
same,"IL-4 production, fold change compared to control","[1]; 13 µM, Day 14",0.4238 fold change
same,"IL-6 production, fold change compared to control","[1]; 13 µM, Day 14",0.6467 fold change
same,"IL-8 production, fold change compared to control","[1]; 13 µM, Day 14",0.4814 fold change
same,"IP-10 production, fold change compared to control","[1]; 13 µM, Day 14",0.5019 fold change
same,"MCP-1 production, fold change compared to control","[1]; 13 µM, Day 14",0.7625 fold change
same,"MIP-1a production, fold change compared to control","[1]; 13 µM, Day 14",0.5355 fold change
same,"VEGF production, fold change compared to control","[1]; 13 µM, Day 14",3.124 fold change
same,"IL-1RA production, fold change compared to control","[1]; 65 µM, Day 8",0.4291 fold change
same,"IL-4 production, fold change compared to control","[1]; 65 µM, Day 8",0.5702 fold change
same,"IL-6 production, fold change compared to control","[1]; 65 µM, Day 8",0.5734 fold change
same,"IL-8 production, fold change compared to control","[1]; 65 µM, Day 8",0.6965 fold change
same,"IP-10 production, fold change compared to control","[1]; 65 µM, Day 8",0.5276 fold change
same,"MCP-1 production, fold change compared to control","[1]; 65 µM, Day 8",0.2341 fold change
same,"MIP-1a production, fold change compared to control","[1]; 65 µM, Day 8",0.4239 fold change
same,"VEGF production, fold change compared to control","[1]; 65 µM, Day 8",1.511 fold change
same,"IL-1RA production, fold change compared to control","[1]; 65 µM, Day 14",0.4779 fold change
same,"IL-4 production, fold change compared to control","[1]; 65 µM, Day 14",0.2046 fold change
same,"IL-6 production, fold change compared to control","[1]; 65 µM, Day 14",0.3326 fold change
same,"IL-8 production, fold change compared to control","[1]; 65 µM, Day 14",0.254 fold change
same,"IP-10 production, fold change compared to control","[1]; 65 µM, Day 14",0.6289 fold change
same,"MCP-1 production, fold change compared to control","[1]; 65 µM, Day 14",0.1593 fold change
same,"VEGF production, fold change compared to control","[1]; 65 µM, Day 14",2.734 fold change
same,cytokine on which the drug had the greatest effect,"[1]; NASH microtissues, high NPC, + TGFβ",MCP-1
same,Pro-collagen 1,[2]; 1.3 uM,415.15 pg/day and 440.97 pg/day and 422.37 pg/day
same,TIMP-1,[2]; 1.3 uM,239.08 pg/day and 252.67 pg/day and 220.1 pg/day
same,Pro-collagen 1,[2]; 13 uM,371.17 pg/day and 444.41 pg/day and 309.29 pg/day
same,TIMP-1,[2]; 13 uM,191.73 pg/day and 205.16 pg/day and 212.17 pg/day
same,Pro-collagen 1,[2]; 65 uM,282.32 pg/day and 426.16 pg/day and 245.63 pg/day
same,TIMP-1,[2]; 65 uM,278.05 pg/day and 246.83 pg/day and 169.84 pg/day
same,soluble biomarkers TIMP-1 and pro-collagen 1,"[2]; NASH + TGFβ, day 14 media",reduced by ELF treatment
same,"NASH resolution, post-hoc analysis of the GOLDEN-505 phase 2b trial",human NASH patients; 120 mg,significant effect on NASH resolution
same,NASH resolution and fibrosis improvement in phase 3 trial,human NASH patients; 16-month interim analysis,did not reach statistical significance
